This note sets out measurements from PubChem BioAssay AID1996.

A word on the solubility (kinetic): it is the concentration staying in solution when a stock, usually in DMSO, is diluted into the medium.

Molecules are shown by their SMILES. In brackets after ≈: the same amount, converted by molar mass.

The conditions of this data set: buffer; pH 7.4; 200.0 µM.
Take `COCCn1c(N)c(Sc2ccccc2)c(=O)[nH]c1=O`: the kinetic solubility was found to be 41.4 µg/mL (≈ 141 µM).

On to `CCN(C(=O)CSc1nc2ccc(Cl)cc2[nH]1)C1CCS(=O)(=O)C1` (stereo not given), for which the solubility (kinetic) was above 58.2 µg/mL.

With `CSCCCNC(=S)N1CCc2ccccc2C1`, the solubility (kinetic) is above 42.1 µg/mL.

`CC(C)=CC(=O)Nc1cccc(S(=O)(=O)NC2=NCCCCC2)c1` gave a solubility (kinetic) above 52.4 µg/mL.

`CCOC(=O)CCCNC(=O)CSc1nc2ccc(OCC)cc2[nH]1`: the solubility (kinetic) was found to be 51.4 µg/mL (≈ 141 µM).

As for `CN(CC(=O)Nc1cccc(F)c1)C(=O)c1ccncc1`, the kinetic solubility is above 43.1 µg/mL.

`CC(C)(CNC(=O)c1cccc(F)c1)CNC(=O)c1cccc(F)c1` showed a solubility (kinetic) of 13.2 µg/mL (≈ 38.1 µM).

Regarding `Cc1cccc(NC(=O)NC(=O)c2ccccc2)n1`, the kinetic solubility was determined as 0.8 µg/mL (≈ 3.13 µM).

Compound `O=C(CN1C(=O)C(=O)c2ccccc21)c1ccc(Cl)cc1` registered a solubility (kinetic) of 1.9 µg/mL (≈ 6.34 µM).

`Cc1cccc(NC(=O)Cc2ccc(Br)cc2)n1` came in with a kinetic solubility of 38.6 µg/mL (≈ 126 µM).

With `CCc1ccc(N2CC(C(=O)OCC(=O)NC3CC3)CC2=O)cc1` (stereo not given), the solubility (kinetic) is above 49.6 µg/mL.

`CC(=O)c1sc2nc(-c3ccco3)ccc2c1N` had a solubility (kinetic) of 6 µg/mL (≈ 23.2 µM).

Turning to `CNC(=O)Cn1nc(C)c(S(=O)(=O)N2CCOCC2)c1C`, the kinetic solubility was above 47.5 µg/mL.

`O=C(O)c1cc(-c2ccc(Cl)c(Cl)c2)n(-c2ccccc2)n1` yielded a kinetic solubility above 50 µg/mL.

On to `Cc1cccc(C(=O)NCCCNC(=O)c2ccc(C)nc2)c1`, for which the kinetic solubility came out at 44.1 µg/mL (≈ 142 µM).

The compound `COC(=O)c1ccsc1NC(=O)CS(=O)(=O)c1ccccc1` displayed a solubility (kinetic) above 50.9 µg/mL.

`CCc1cc2c(=O)c(-c3nc(C)cs3)coc2cc1O`: the solubility (kinetic) came to 1.2 µg/mL (≈ 4.18 µM).

For `Cc1ccc(SCC(=O)NCCc2ccccc2)cc1`, the kinetic solubility came to 20.7 µg/mL (≈ 72.5 µM).

For `O=C(NCc1ccc(F)cc1)c1cccnc1C(=O)O`, the kinetic solubility is above 41.1 µg/mL.

`CCC(CC)C(=O)NCc1cccnc1` showed a kinetic solubility above 30.9 µg/mL.

As for `O=C(O)C1CC=CCC1C(=O)NCCCN1CCCC1=O` (stereo not given), the solubility (kinetic) was above 44.2 µg/mL.

On to `COc1cccc(NC(=O)CN2CCCCCC2)c1.Cl`, for which the solubility (kinetic) worked out at 44.1 µg/mL.

Take `O=C(O)c1cccc(Nc2nc3ccccc3nc2NS(=O)(=O)c2ccc(F)cc2)c1`: the solubility (kinetic) is above 65.8 µg/mL.

Take `CN(CC(=O)N1CCOCC1)S(=O)(=O)c1ccc2ccccc2c1`: the kinetic solubility is above 52.3 µg/mL.

The compound `NC(=O)Cn1c(=O)n(Cc2ccccc2)c(=O)c2cccnc21` gave a solubility (kinetic) of 33.8 µg/mL (≈ 109 µM).

For `COc1cc(CCC(=O)NCC2CCCO2)cc(OC)c1OC` (stereo not given), the kinetic solubility stood at 44 µg/mL (≈ 136 µM).

In the case of `CCOc1ccc(C(=O)N2CCn3c2nc2ccccc23)cc1`, the solubility (kinetic) was 6.4 µg/mL (≈ 20.8 µM).

`CSC(=Nc1ccccc1)Nc1ccccc1` registered a kinetic solubility of 6.4 µg/mL (≈ 26.4 µM).

`CN(C)C(=S)SCC(=O)NC(=O)NC(C)(C)C` gave a solubility (kinetic) of 39.4 µg/mL (≈ 142 µM).

`COc1ccc(OC(=O)C(C)N2C(=O)c3ccccc3C2=O)cc1` (stereo not given) displayed a solubility (kinetic) of 33.3 µg/mL (≈ 102 µM).

Compound `CC(=O)Nc1c2c(nn1-c1ccc(F)cc1)CSC2` gave a kinetic solubility above 41.6 µg/mL.

Compound `NC(=S)N(c1ccccc1)c1ccccc1` showed a solubility (kinetic) above 34.2 µg/mL.

In the case of `Cc1ccc(C(C)C)cc1S(=O)(=O)Nc1cccnc1`, the kinetic solubility was 3.5 µg/mL (≈ 12.1 µM).

The compound `CC(C)(C)Nc1nc(Cl)nc(Nc2ccccc2)n1` registered a kinetic solubility of 2.9 µg/mL (≈ 10.4 µM). The solubility kinetic values of the last two compounds are within 1.5-fold of each other.

For the compound `O=C(OCC(=O)N1CCOCC1)c1ccc2ccccc2c1`, the solubility (kinetic) was above 44.9 µg/mL.

Take `COc1ccc(NC(=S)NC23CN4CN(CN(C4)C2)C3)c(OC)c1`: the solubility (kinetic) was above 52.4 µg/mL.

As to `NC(=O)CC1C(=O)N(c2ccccc2)C(=S)N1NC(=O)c1ccccc1` (stereo not given), the kinetic solubility is above 55.3 µg/mL.

Regarding `CCOc1ccc(C2NC(=S)NC3=C2CCc2ccccc23)cc1` (stereo not given), the kinetic solubility was 10.9 µg/mL (≈ 32.4 µM).

With `Cc1ccccc1Nc1c(C)c(C)nc2ncnn12`, the kinetic solubility is above 38 µg/mL.

`CCCN1C(=S)c2ccccc2C1c1ccccc1` (stereo not given): the solubility (kinetic) was 8.8 µg/mL (≈ 32.9 µM).

In the case of `CC(=O)N[C@@H](Cc1c[nH]c2ccccc12)C(=O)OCc1cc(C(F)(F)F)cc(C(F)(F)F)c1`, the kinetic solubility was 3.4 µg/mL (≈ 7.2 µM).

For `Cc1cc(F)ccc1NC(=O)C1CSC2(C)CCC(=O)N12` (stereo not given), the solubility (kinetic) was above 46.3 µg/mL.

With `CCN(CC)CCCNCC(=O)Nc1ccc2c(c1)CCC2`, the solubility (kinetic) amounted to 24.3 µg/mL (≈ 80.1 µM).

With `CC1=C/C(=C\C=C(C#N)C#N)N(C)c2ccccc21`, the kinetic solubility was determined as 0.8 µg/mL (≈ 3.23 µM).

As for `O=C(NCc1ccncc1)c1cc2ccccc2nc1Cl`, the solubility (kinetic) worked out at 43.4 µg/mL (≈ 146 µM).

Consider `COc1ccc(NC(=O)c2ccc3ccccc3c2)cc1`, for which the solubility (kinetic) was below 0.6 µg/mL.

Regarding `CC(=O)Nc1ccc(NC(=O)c2cccc(Oc3ccccc3)c2)cc1`, the solubility (kinetic) was below 0.4 µg/mL.

As to `O=C(COC(=O)c1ccc(O)cc1)Nc1ccc2c(c1)OCO2`, the kinetic solubility worked out at 15.6 µg/mL (≈ 49.5 µM).

As for `Cn1ccnc1C(O)(c1ccccc1)c1ccccc1`, the solubility (kinetic) was found to be 35.4 µg/mL (≈ 134 µM). Compared with the last compound, the solubility kinetic is about 2.3-fold higher.

On to `NC(=O)COc1ccccc1C(=O)NC12CC3CC(CC(C3)C1)C2`, for which the kinetic solubility came to 14.2 µg/mL (≈ 43.2 µM).

As to `O=S(=O)(Nc1cccnc1Cl)c1ccc(F)cc1`, the kinetic solubility is above 43 µg/mL.

`O=C(O)COc1ccc(Br)cc1/C=N\Nc1ccccn1` showed a solubility (kinetic) above 52.5 µg/mL.

Take `C=C(c1ccccc1O)n1ccnc1`: the solubility (kinetic) is above 27.9 µg/mL.

Regarding `O=C(O)CNS(=O)(=O)c1ccc2c3c(cccc13)C(=O)N2`, the solubility (kinetic) was above 45.9 µg/mL.

With `Cc1cc(S(=O)(=O)Nc2ccc(C(=O)NCC3CCCO3)cc2)ccc1F` (stereo not given), the kinetic solubility was found to be 1 µg/mL (≈ 2.55 µM).

Compound `NS(=O)(=O)c1cccc(NC(=O)c2cccc(S(=O)(=O)N3CCCCCC3)c2)c1` had a solubility (kinetic) of 49.9 µg/mL (≈ 114 µM).

Compound `O=C(COC(=O)CCc1ccccc1)NCc1ccc2c(c1)OCO2` registered a kinetic solubility above 51.2 µg/mL.

In turn, `COc1ccc(CC(C)Nc2cccc(F)c2)cc1` (stereo not given) showed a kinetic solubility of 1 µg/mL (≈ 3.86 µM).

For the compound `CC(=O)C1=C(O)C(=O)N(c2ccc(O)cc2)C1c1ccccc1F` (stereo not given), the kinetic solubility was above 49.1 µg/mL.

`CC1(C)CC(=O)C(C2=NC3(CCCCC3)Cc3ccccc32)=C(O)C1` gave a kinetic solubility above 50.6 µg/mL.

In turn, `COc1cccc2cc(C(=O)OCC(=O)NC3CCCC(C)C3C)c(=O)oc12` (stereo not given) came in with a kinetic solubility of 13.7 µg/mL (≈ 35.4 µM).

Compound `S=C1NCN(Cc2ccco2)CN1Cc1ccco1` showed a kinetic solubility of 40.3 µg/mL (≈ 145 µM).

`O=C(NCc1cccc(C(F)(F)F)c1)c1ccc[nH]1` showed a solubility (kinetic) above 40.2 µg/mL.

Regarding `C=CCC(=O)NC(C)c1cnn(-c2ccccc2C)c1C` (stereo not given), the kinetic solubility is above 42.5 µg/mL.

Turning to `Cn1c(O)c(C=NCCN2CCOCC2)c(=O)[nH]c1=S`, the kinetic solubility is above 44.8 µg/mL.

`Cc1cccc(S(=O)(=O)Nc2ccc3c(c2)OCCO3)c1`: the solubility (kinetic) was found to be 28.7 µg/mL (≈ 94 µM).

For `Cc1ccc(C(=O)N[C@H](C(=O)NC2CCCCC2)C(C)C)cc1`, the solubility (kinetic) came to 8 µg/mL (≈ 25.3 µM).

Compound `CC(O)CNCCOc1cccc(Oc2ccccc2)c1.O=C(O)C(=O)O` (stereo not given) came in with a kinetic solubility of 45.6 µg/mL.

For the compound `O=C(CCl)N(C1CCCC1)C1CCS(=O)(=O)C1` (stereo not given), the kinetic solubility is above 42 µg/mL.

In turn, `COc1ccccc1C1C(C(C)=O)=C(O)C(=O)N1c1ccc(O)cc1` (stereo not given) came in with a solubility (kinetic) above 50.9 µg/mL.

For `O=C(NC1CCSc2ccccc21)c1cccc(Cl)c1` (stereo not given), the kinetic solubility worked out at 2.1 µg/mL (≈ 6.91 µM).

Regarding `Cn1ccnc1COc1ccc(/C=N/O)cc1`, the kinetic solubility was above 34.7 µg/mL.

Turning to `CC1CC1C(=O)OCC(=O)NC(=O)NC12CC3CC(CC(C3)C1)C2` (stereo not given), the solubility (kinetic) came to 22.5 µg/mL (≈ 67.3 µM).

As to `Cc1ccc(C)c(S(=O)(=O)NCC(=O)N2CCCC2)c1`, the solubility (kinetic) amounted to 41.4 µg/mL (≈ 140 µM). This solubility kinetic is about 1.8-fold higher than that of the compound before.

Regarding `CCOc1ccccc1N=Cc1c(O)c2ccccc2oc1=O`, the kinetic solubility is below 0.7 µg/mL.
